Reference: US7935719B2, “N-substituted-azacyclylamines as histamine-3 antagonists” (Wyeth LLC, priority 2006, dated 2011)
Where a name gives a salt, the structure may show the parent alone.

Target: T1, Histamine Receptor H3 (Homo sapiens, UniProt Q9Y5N1)
Assay: Methyl histamine binding in human histamine H3 receptor cell line
Design: expressed in transfected cells; host or cells: HEK293T
Settings: membranes of stably transfected HEK293T cells, radioligand 1 nM, Ki from IC50 by Cheng-Prusoff
Protocol: Evaluation of Methyl Histamine Binding in Human Histamine H3 Receptor Cell Line
The affinity of test compounds for the histamine 3 (H3) receptor is evaluated in the following manner. […] Cells are scraped from the plate, transferred to centrifuge tubes, washed one time in PBS by centrifugation in a Sorvall RT7 Plus centrifuge (2000 rpm 10 minutes, 4° C.). The resulting pellets are stored at −80° C. until ready for use. Cells are re-suspended in buffer (50 mM Tris pH=7.5) and placed in a Dounce homogenizer, douncing ten times to homogenize cells. The homogenate is spun down by centrifugation (Sorvall RT7 Plus, 1800 rpm 10 minutes, 4° C.). The supernatant is placed in a Corex tube and spun down by centrifugation (Sorvall RC 5c Plus, 17,000 rpm 20 minutes, 4° C.). The pellet is resuspended in buffer (50 mM Tris, pH 7.5). Protein concentration (ug/ul) is determined using the Micro-BCA Protein Determination. The binding assay is set up in a 96 well microtiter plate in a total volume of 250 uL. Non-specific binding is determined in the presence of 10 uM clobenpropit. The final radioligand concentration is 1 nM. The test compound is serially diluted using the Beckman Biomek2000 to a final approximate range of 100 uM to 100 pM. Membranes are suspended in buffer, homogenized in 2 bursts of ten seconds using a Vitris mechanical homogenizer set at power setting 5. Ten μg of membranes are added to each well. Following a one hour incubation at 30° C., the reaction is terminated by the addition of ice cold buffer and rapid filtration with a Packard Filtermate Harvester through a GF/B filter pre-soaked with 1% PEI for one hour. The plate is dried for one hour at 37° C. and 60 μL Microscint Scintillant is added to each well. The CPM per well is measured on a Packard Top Count NXT. Ki values are determined in nM. […] CPM values are expressed as % specific binding and plotted vs compound concentration. A curve is fitted using a four-parameter logistic fit and the IC50 value is determined. The Ki is calculated from this using the Cheng-Prusoff equation: […]=IC50/1+(L/Kd) where L=concentration of free radioligand used in the assay, and Kd is the dissociation constant of the radioligand for the receptor. L is determined for each experiment by counting an aliquot of the diluted radioligand (corresponding to that added to each well) and the Kd has previously been determined under identical conditions for this cell line/radioligand.

T1 sequence (Q9Y5N1 whole entry): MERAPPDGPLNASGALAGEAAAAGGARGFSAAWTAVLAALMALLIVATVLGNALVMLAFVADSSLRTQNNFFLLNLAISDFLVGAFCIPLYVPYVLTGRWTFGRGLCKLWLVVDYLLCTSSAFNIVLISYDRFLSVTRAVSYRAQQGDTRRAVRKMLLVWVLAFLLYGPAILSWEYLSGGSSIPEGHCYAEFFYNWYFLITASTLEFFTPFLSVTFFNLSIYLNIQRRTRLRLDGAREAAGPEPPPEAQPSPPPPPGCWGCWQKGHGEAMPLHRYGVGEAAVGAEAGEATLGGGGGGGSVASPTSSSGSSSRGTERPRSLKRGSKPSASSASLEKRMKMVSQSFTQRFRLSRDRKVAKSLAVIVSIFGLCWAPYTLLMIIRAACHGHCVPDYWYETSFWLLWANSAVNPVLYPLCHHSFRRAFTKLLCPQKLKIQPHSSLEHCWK

Ki, < 10 nM:
O=C(c1ccc(-n2cnc3ccccc32)cc1)N1CCC(N2CCCC2)C1 (centres unmarked) [Example 2, 1′-[4-1H-benzimidazol-1-yl)benzoyl]-1,3′-bipyrrolidine hydrochloride]
O=C(c1ccc(-n2cnc3ccccc32)cc1)N1CC[C@H](N2CCCC2)C1 [Example 5, (3′S)-1′-[4-(1H-benzimidazol-1-yl)benzoyl]-1,3′-bipyrrolidine hydrochloride]
C[C@H]1CCCN1[C@H]1CCN(C(=O)c2ccc(-n3cnc4ccccc43)cc2)C1 [Example 7, (2S,3′S)-1′-[4-(1H-benzimidazol-1-yl)benzoyl]-2-methyl-1,3′-bipyrrolidine]
CC1CCCN([C@H]2CCN(C(=O)c3ccc(-n4cnc5ccccc54)cc3)C2)C1 (stereo partly drawn) [Example 8, 1-(4-{[(3S)-3-(3-methylpiperidin-1-yl)pyrrolidin-1-yl]carbonyl}phenyl)-1H-benzimidazole]
O=C(c1ccc(-n2cnc3ccccc32)cc1)N1CC[C@H](N2CCCCCC2)C1 [Example 11, 1-(4-{[(3S)-3-azepan-1-ylpyrrolidin-1-yl]carbonyl}phenyl)-1H-benzimidazole]
O=C(c1ccc(-n2cnc3ccccc32)cc1)N1CC[C@H](N2CCCCC2)C1 [Example 13, 1-(4-{[(3S)-3-piperidin-1-ylpyrrolidin-1-yl]carbonyl}phenyl)-1H-benzimidazole]
c1ccc2c(c1)ncn2-c1ccc(CN2CC[C@H](N3CCCC3)C2)cc1 [Example 14, (3′S)-1′-[4-(1H-benzimidazol-1-yl)benzyl]-1,3′-bipyrrolidine hydrochloride]
c1ccc2c(c1)ncn2-c1ccc(CN2CC[C@H](N3CCCCC3)C2)cc1 [Example 15, (1-(4-{[(3S)-3-piperidin-1-ylpyrrolidin-1-yl]methyl}phenyl)-1H-benzimidazolefumaric acid salt]
Cc1nc2ccccc2n1-c1ccc(CN2CC[C@H](N3CCCC3)C2)cc1 [Example 17, (3′S)-1′-[4-(2-methyl-1H-benzimidazol-1-yl)benzyl]-1,3′-bipyrrolidine]
Cc1nc2ccccc2n1-c1ccc(CN2CC[C@H](N3CCCCCC3)C2)cc1 [Example 18, 1-(4-{[(3S)-3-azepan-1-ylpyrrolidin-1-yl]methyl}phenyl)-2-methyl-1H-benzimidazole]
Cc1nc2ccccc2n1-c1ccc(C(=O)N2CC[C@H](N3CCCCCC3)C2)cc1 [Example 20, 1-(4-{[(3S)-3-azepan-1-ylpyrrolidin-1-yl]carbonyl}phenyl)-2-methyl-1H-benzimidazole fumaric acid salt]
Cc1nc2ccccc2n1-c1ccc(C(=O)N2CC[C@H](N3CCCCC3C)C2)cc1 (stereo partly drawn) [Example 23, 2-methyl-1-(4-{[(3S)-3-(2-methylpiperidin-1-yl)pyrrolidin-1-yl]carbonyl}phenyl)-1H-benzimidazole]
O=C(c1ccc(-n2ccc3ccccc32)cc1)N1CC[C@H](N2CCCC2)C1 [Example 30, (3′S)-1′-[4-(1H-indol-1-yl)benzoyl]-1,3′-bipyrrolidine hydrochloride]
O=C(c1ccc(-n2ccc3c(Cl)cccc32)cc1)N1CC[C@H](N2CCCC2)C1 [Example 32, (3′S)-1′-[4-(4-chloro-1H-indol-1-yl)benzoyl]-1,3′-bipyrrolidine]
O=C(c1ccc(-n2ccc3cccc(Cl)c32)cc1)N1CC[C@H](N2CCCC2)C1 [Example 34, (3′S)-1′-[4-(7-chloro-1H-indol-1-yl)benzoyl]-1,3′-bipyrrolidine]
O=C(c1ccc(-n2ccc3cc(Br)ccc32)cc1)N1CC[C@H](N2CCCC2)C1 [Example 35, (3′S)-1′-[4-(5-bromo-1H-indol-1-yl)benzoyl]-1,3′-bipyrrolidine]
Cc1cc2ccccc2n1-c1ccc(C(=O)N2CC[C@H](N3CCCC3)C2)cc1 [Example 38, (3′S)-1′-[4-(2-methyl-1H-indol-1-yl)benzoyl]-1,3′-bipyrrolidine]
O=C(c1ccc(-n2ncc3cc(F)ccc32)cc1)N1CC[C@H](N2CCCC2)C1 [Example 40, (3′S)-1′-[4-(5-fluoro-1H-indazol-1-yl)benzoyl]-1,3′-bipyrrolidine]
N#Cc1ccc2c(cnn2-c2ccc(C(=O)N3CC[C@H](N4CCCC4)C3)cc2)c1 [Example 42, 1-{4-[(3′S)-1,3′-bipyrrolidin-1′-ylcarbonyl]phenyl}-1H-indazole-5-carbonitrile]
N#Cc1ccc2nn(-c3ccc(C(=O)N4CC[C@H](N5CCCC5)C4)cc3)cc2c1 [Example 43, 2-{4-[(3′S)-1,3′-bipyrrolidin-1′-ylcarbonyl]phenyl}-2H-indazole-5-carbonitrile]
O=C(c1ccc(-n2cc3ccc(F)cc3n2)cc1)N1CC[C@H](N2CCCC2)C1 [Example 44, (3′S)-1′-[4-(6-fluoro-2H-indazol-2-yl)benzoyl]-1,3′-bipyrrolidine]
O=C(c1ccc(-n2cc3cc(F)ccc3n2)cc1)N1CC[C@H](N2CCCC2)C1 [Example 45, (3′S)-1′-[4-(5-fluoro-2H-indazol-2-yl)benzoyl]-1,3′-bipyrrolidine]
N#Cc1ccc2c(ccn2-c2ccc(C(=O)N3CC[C@@H](N4CCCC4)C3)cc2)c1 [Example 46, 1-{4-[(3′R)-1,3′-bipyrrolidin-1′-ylcarbonyl]phenyl}-1H-indole-5-carbonitrile]

Ki, 25.1 to 50 nM:
CC1CCCCN1[C@H]1CCN(C(=O)c2ccc(-n3cnc4ccccc43)cc2)C1 (stereo partly drawn) [Example 12, 1-(4-{[(3S)-3-(2-methylpiperidin-1-yl)pyrrolidin-1-yl]carbonyl}phenyl)-1H-benzimidazole]
Cc1nc2ccccc2n1-c1ccc(C(=O)N2CC[C@H](N3CCC(C)CC3)C2)cc1 [Example 25, 2-methyl-1-(4-{[(3S)-3-(4-methylpiperidin-1-yl)pyrrolidin-1-yl]carbonyl}phenyl)-1H-benzimidazole]
N#Cc1ccc2c(c1)ncn2-c1ccc(C(=O)N2CC[C@H](N3CCCC3)C2)cc1 [Example 48, 1-{4-[(3′S)-1,3′-bipyrrolidin-1′-ylcarbonyl]phenyl}-1H-benzimidazole-5-carbonitrile fumarate]

Ki, 10.1 to 25 nM:
C[C@@H]1CCCN1[C@H]1CCN(C(=O)c2ccc(-n3cnc4ccccc43)cc2)C1 [Example 6, (2R,3′S)-1′-[4-(1H-benzimidazol-1-yl)benzoyl]-2-methyl-1,3′-bipyrrolidine]
O=C(c1ccc(-n2ncc3ccc(F)cc32)cc1)N1CC[C@H](N2CCCC2)C1 [Example 41, (3′S)-1′-[4-(6-fluoro-1H-indazol-1-yl)benzoyl]-1,3′-bipyrrolidine]

Ki, > 100 nM:
CC1CCN([C@H]2CCN(C(=O)c3ccc(-n4cnc5ccccc54)cc3)C2)CC1 [Example 9, 1-(4-{[(3S)-3-(4-methylpiperidin-1-yl)pyrrolidin-1-yl]carbonyl}phenyl)-1H-benzimidazole]
CN1CCN([C@H]2CCN(C(=O)c3ccc(-n4cnc5ccccc54)cc3)C2)CC1 [Example 10, 1-(4-{[(3S)-3-(4-methylpiperazin-1-yl)pyrrolidin-1-yl]carbonyl}phenyl)-1H-benzimidazole]
Cc1nc2ccccc2n1-c1ccc(C(=O)N2CC[C@H](N3CCN(C)CC3)C2)cc1 [Example 26, 2-methyl-1-(4-{[(3S)-3-(4-methylpiperazin-1-yl)pyrrolidin-1-yl]carbonyl}phenyl)-1H-benzimidazole]

Target: T1, Histamine Receptor H3
Assay: Cyclic AMP assay for histamine receptor H3 antagonism activity
Format: cell-based
Design: expressed in transfected cells
Settings: stable H3 cells, histamine plus 10 μM forskolin, 30 min at 30° C., HitHunter cAMP kit
Protocol: Cyclic Amp Assay for Histamine Receptor H3 Antagonism Activity.
Stable H3 cells are maintained in tissue culture flask in DMEM with high glucose, 10% FBS, 1× pen/strep, 500 ug/ml GY18, until experiment. Culture media is removed and cells are washed twice with PBS w/Ca+2 and Mg+2 plus 500 μM IBMX. Cells are then detached by tapping on the side of the flask and resuspend in the same buffer. Two thousand cells/well are incubated with 1 μM histamine plus 10 μM forskolin plus various concentrations of compounds in a total volume of 30 μL in 96 well plates for 30 min at 30° C. Final test compound concentrations range from 10^-4 M to 10-9.5 M at full log dilutions. Cyclic AMP levels are measured using HitHunter cAMP kit from Discoverx, cat#900041 according to manufacturer's instruction. Chemiluminescence signals are detected using Top Count (Packard). Cyclic AMP levels in control cells receiving 10 μM forskolin plus 100 nM histamine are considered 0%, and in cells receiving 10 uM forskolin plus 100 nM histamine plus 1 μM clobenpropit are considered 100%. Data are expressed as % control and analyzed using Prizm software. The Kb values are calculated using the following equation, KB=EC50 or IC50/[1+(ligand/Kd)].

Kb, 25.1 to 50 nM:
O=C(c1ccc(-n2cnc3ccccc32)cc1)N1CC[C@H](N2CCCC2)C1 [Example 5, (3′S)-1′-[4-(1H-benzimidazol-1-yl)benzoyl]-1,3′-bipyrrolidine hydrochloride]

Kb, < 10 nM:
O=C(c1ccc(-n2cnc3ccccc32)cc1)N1CCC(N2CCCC2)C1 (centres unmarked) [Example 2, 1′-[4-1H-benzimidazol-1-yl)benzoyl]-1,3′-bipyrrolidine hydrochloride]
C[C@H]1CCCN1[C@H]1CCN(C(=O)c2ccc(-n3cnc4ccccc43)cc2)C1 [Example 7, (2S,3′S)-1′-[4-(1H-benzimidazol-1-yl)benzoyl]-2-methyl-1,3′-bipyrrolidine]
O=C(c1ccc(-n2cnc3ccccc32)cc1)N1CC[C@H](N2CCCCCC2)C1 [Example 11, 1-(4-{[(3S)-3-azepan-1-ylpyrrolidin-1-yl]carbonyl}phenyl)-1H-benzimidazole]
